Results from US7718801B2, “Substituted imidazole derivative” (Banyu Pharmaceutical Co., Ltd., priority 2004, dated 2010).

Legend:
[1] = target: T1, PLK1-T210D (human active type PLK1) (Homo sapiens, UniProt P53350, T210D); assay: Measurement of the inhibitory effect against PLK1-T210D activity ([γ-33P]ATP, CDC25C-derived peptide substrate); format: biochemical; conditions: 50 μM ATP, 50 μM substrate peptide, 25° C., 20 minutes
T1 construct: a baculovirus expressing full-length human PLK1 of which N terminus is fused with GST; GST (glutathione S-transferase) (N); made in house; host or cells: insect cells (baculovirus)
T1 sequence (P53350 whole entry T210D, the tested form may be a part): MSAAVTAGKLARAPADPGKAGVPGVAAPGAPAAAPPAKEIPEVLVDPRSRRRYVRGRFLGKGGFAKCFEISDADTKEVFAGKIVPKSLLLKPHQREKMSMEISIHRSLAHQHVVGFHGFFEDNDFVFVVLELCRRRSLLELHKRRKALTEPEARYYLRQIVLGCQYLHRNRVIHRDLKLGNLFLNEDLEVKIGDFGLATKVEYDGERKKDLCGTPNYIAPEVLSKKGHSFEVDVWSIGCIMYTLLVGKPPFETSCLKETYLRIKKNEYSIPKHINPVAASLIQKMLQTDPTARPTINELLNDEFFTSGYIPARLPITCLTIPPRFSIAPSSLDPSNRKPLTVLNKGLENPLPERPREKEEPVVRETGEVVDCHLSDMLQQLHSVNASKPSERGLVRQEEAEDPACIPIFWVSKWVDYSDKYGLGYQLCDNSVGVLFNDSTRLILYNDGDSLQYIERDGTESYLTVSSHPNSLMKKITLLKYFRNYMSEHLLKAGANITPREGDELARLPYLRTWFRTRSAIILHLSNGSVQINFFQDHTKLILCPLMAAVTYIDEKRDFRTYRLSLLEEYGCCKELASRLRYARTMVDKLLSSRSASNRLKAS
Procedure: It has been known that 210th codon of human PLK1 which originally codes for threonine can be changed to an active type by altering the site so as to code aspartic acid [Molecular and Cellular Biology (Mol. Cell. Biol.), 17th edition, 3408 (1997)]. In order to obtain a human active type PLK1 protein, cDNA of mutated PLK1 (PLK1-T210D) of which 210th codon codes aspartic acid was prepared, by substituting a base in the 210th codon of human PLK1 cDNA. This PLK1-T210D cDNA was integrated into a baculovirus expression vector in the same manner as in the above, expressed in insect cells, and then was purified.
For the measurement of the PLK1 and PLK1-T210D activity, used as a substrate was a synthetic peptide (aspartic acid-glutamic acid-leucine-methionine-glutamic acid-alanine-serine-phenylalanine-alanine-aspartic acid-glutamine-aspartic acid-alanine-lysine), where the serine surrounding sequence of the amino acid sequence No. 198 of CDC25C, which have been reported as the site for PLK1 substrate [EMBO Report, 3rd edition, 341 (2002)], is altered.
The reaction was carried out in accordance with the method of Toyoshima-Morimoto et al. [Nature, Vol. 410, 215-220, (2001)]. The volume of the reaction solution was 21.1 μL and the composition of the reaction buffer was 20 mM of tris-hydrochloric acid buffer (pH 7.4)/10 mM magnesium chloride/0.5 mM dithiothreitol/1 mM EGTA (ethylene glycol-bis(beta-aminoethylether)-N,N,N′,N′,-tetraacetic acid). Thereto, purified PLK 1, 50 μM of the substrate peptide, 50 μM of non-labeled adenosine triphosphate (ATP), and 1 μCi of [γ-33P]-labeled ATP (2000 to 4000 Ci/mmole) were added to react at 25° C. for 20 minutes. Then, 10 μL of 350 mM phosphate buffer was added to the reaction system to terminate the reaction. The resultant solution was spotted onto a multi-screen phosphocellulose filter on a 96-well plate. After the phosphocellulose filter is washed with 75 mM phosphate buffer and then dried, the radioactivity of the substrate was measured with a liquid scintillation counter. The non-labeled ATP and [γ-33P]-labeled ATP was purchased from Amersham Bioscience Corp. and the multi-screen phosphocellulose filter from Millipore Corp., respectively.
The addition of the compound of the present invention to the reaction system was carried out by adding 1.1 μL of the solution as prepared by preliminarily dissolving in dimethylsulfoxide at a 20-fold concentration of the final concentration. A control was provided by adding 1.1 μL of dimethylsulfoxide to the reaction system.

HeLaS3 cells = assay: Inhibitory activity against PLK1 at cellular level: ratio of cells arrested at M phase (phospho-histone H3 Ser10, mitotic index); format: cell-based; conditions: Homo sapiens, HeLa S3; HeLaS3 cells synchronized at G1/S, 12 hours with compound; concentration inducing 50% of maximal M phase arrest; read-out: Inhibitory effect against cell proliferation
Procedure: For the measurement of the PLK 1 inhibitory effect of the compound at the cellular level, human uterine cervix cell lines HeLaS3 cells were used. The HeLaS3 cell was obtained from American Type Culture Collection (ATTC), and cultured in a CO2-incubator of saturated steam by using Dulbecco's Modified Eagle's Medium containing 10% fetal calf serum at 37° C. in the presence of 5% CO2.
It has been reported that PLK 1 plays an important role in various stages of mitotic phase (M-phase) in mammalian cells (Nature Review Molecular Cell Biology, Vol. 5, 429, (2004)). In fact, when the mammalian cells are treated with PLK 1 siRNA to control the expression level, the cell cycle progression is inhibited and thus the cell is arrested at M phase. Also, when examining the phosphorylation level of serine, 10th residue of histone H3, which is thought to be required for a chromosome condensation in M phase, it is observed that the level is enhanced to a high level. Thus, after treating the cell with the compound according to the present invention; the phosphorylation level of histone H3 was examined by an indirect fluorescent antibody technique, the cells arrested at M phase were identified by using the level thereof as an indicator to analyze the ratio of cells arrested at M phase; and then EC50 value of each compound was calculated to evaluate the PLK 1 inhibitory effect at a cellular level.
First, HeLaS3 cells synchronized at the G1/S phase by a double-thymidine technique were seeded into lysine-treated 96-well plate (Falcon Corp.) at the ratio of 8,000 per one well, and allowed to stand still in the above-mentioned CO2 incubator. […] After terminating the reaction, the reaction solution in wells was removed and replaced with 100 μL of PBS, and then fluorescence images were captured by using InCell Analyzer 1000 (manufactured by GE Amersham) to analyze the ratio of the cells arrested at M phase (Mitotic index) at different view angles. […]

full-length human PLK1 = target: T2, full-length human PLK1 (Homo sapiens, UniProt P53350); assay: Measurement of the inhibitory effect against PLK1 activity ([γ-33P]ATP, CDC25C-derived peptide substrate); format: biochemical; conditions: 50 μM ATP, 50 μM substrate peptide, 25° C., 20 minutes
T2 construct: a baculovirus expressing full-length human PLK1 of which N terminus is fused with GST; GST (glutathione S-transferase) (N, cleaved yes); made in house; host or cells: Spodoptera frugiperda Sf9 insect cells (baculovirus)
T2 sequence (P53350 whole entry, the tested form may be a part): as the sequence (P53350 whole entry T210D, the tested form may be a part) above, with D210T counted along it
Procedure: First, a baculovirus expressing full-length human PLK1 of which N terminus is fused with GST (glutathione S-transferase) was prepared, and then the PLK1 infected into a Spodoptera frugiperda (Sf)9 insect cell was highly expressed as a GST-fused protein. The cells were recovered and suspended in a lysis buffer (50 mM tris-hydrochloric acid buffer (pH 7.4)/150 mM sodium chloride/1 mM EDTA (ethylenediamine tetraacetic acid)/1 mM dithiothreitol/0.1% polyoxyethylene sorbitan monolaurate) to break cells with sonicator, and supernatant was recovered after a centrifugation. The supernatant was reacted on glutathione sepharose beads, and then the beads were washed with a lysis buffer. Thereafter, the beads were reacted in a lysis buffer containing Precision Protease to recover supernatant. […]
The reaction was carried out in accordance with the method of Toyoshima-Morimoto et al. [Nature, Vol. 410, 215-220, (2001)]. […] After the phosphocellulose filter is washed with 75 mM phosphate buffer and then dried, the radioactivity of the substrate was measured with a liquid scintillation counter. […]

| Compound | IC50 [1] [nM] | EC50 (HeLaS3 cells) [nM] | IC50 (full-length human PLK1) [nM] |
| --- | --- | --- | --- |
| Cc1cccn2c(-c3nc(N[C@@H](C)c4ccc(N)cc4)ncc3C#N)cnc12 [Example 112, 2-{[(1S)-1-(4-aminophenyl)ethyl]amino}-4-(8-methylimidazo[1,2-a]pyridin-3-yl)pyrimidine-5-carbonitrile] | 47 | 340 | – |
| C[C@H](Nc1ncc(Br)c(-c2cnc3c(Cl)cccn23)n1)c1ccccc1 [Example 28, 5-bromo-4-(8-chloroimidazo[1,2-a]pyridin-3-yl)-N-[(1S)-1-phenylethyl]-2-pyrimidinamine] | 42 | – | – |
| COc1cccn2c(-c3nc(N[C@@H](C)c4ccc(N5CCNCC5)cc4)ncc3C#N)cnc12 [Example 158, 4-(8-methoxyimidazo[1,2-a]pyridin-3-yl)-2-{[(1S)-1-(4-piperazin-1-ylphenyl)ethyl]amino}pyrimidine-5-carbonitrile] | 41 | 180 | – |

Stronger by IC50 [1], values ahead:

| IC50 [1] [nM] | EC50 (HeLaS3 cells) [nM] | IC50 (full-length human PLK1) [nM] | Compound |
| --- | --- | --- | --- |
| 16 | 310 | – | C[C@H](Nc1ncc(C#N)c(-c2cnc3c(C(F)(F)F)cccn23)n1)c1ccccc1 [Example 36, 2-{[(1S)-1-phenylethyl]amino}-4-[8-(trifluoromethyl)imidazo[1,2-a]pyridin-3-yl]-5-pyrimidinecarbonitrile] |
| 26 | – | 43 | Cc1cccn2c(-c3nc(N[C@@H](C)c4ccccc4)ncc3C#N)cnc12 [Example 8, 4-(8-methylimidazo[1,2-a]pyridin-3-yl)-2-{[(1S)-1-phenylethyl]amino}-5-pyrimidinecarbonitrile] |
